ChEMBL document CHEMBL1201862, “PubChem BioAssay data set” (2004)
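Protocol summary: plate cells (96-well), add compound at 5 concentrations, incubate 48 h, interpolate endpoints linearly. GI50 = concentration required for 50% inhibition of growth.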 Calls of active or inactive are those of the source. Cut-off read from the data, not from the text of the source: active = GI50 up to about 1.1 µM and inactive = higher.

Legend:
Test in all cases: inhibition of tumour cell growth, NCI panel, 48 h
[1] = test system: A498
[2] = test system: SF-539
[3] = test system: CAKI-1
[4] = test system: HCT-15
[5] = test system: ACHN
[6] = test system: HOP-62
[7] = test system: NCI/ADR-RES
[8] = test system: SN12C
[9] = test system: CCRF-CEM
[10] = test system: 786-0
[11] = test system: SF-295
[12] = test system: HOP-92
[13] = test system: EKVX
[14] = test system: PC-3
[15] = test system: OVCAR-4
[16] = test system: UACC-62
[17] = test system: K562
[18] = test system: U-251
[19] = test system: LOX IMVI
[20] = test system: HL-60

Compound	GI50 [1]	GI50 [2]	GI50 [3]	GI50 [4] [µM]	GI50 [5]	GI50 [6]	GI50 [7]	GI50 [8]	GI50 [9]	GI50 [10]	GI50 [11]	GI50 [12]	GI50 [13]	GI50 [14]	GI50 [15]	GI50 [16]	GI50 [17]	GI50 [18]	GI50 [19]	GI50 [20]
N#CCCN(CCC#N)c1ccc(C(=N/c2ccc(Cl)cc2)/N=N/c2ccc(Cl)cc2)cc1	19.9 µM (inactive)	17.8 µM (inactive)	16.4 µM (inactive)	10.7	18.2 µM (inactive)	21.7 µM (inactive)	17.2 µM (inactive)	17.7 µM (inactive)	35.2 µM (inactive)	18.3 µM (inactive)	10.7 µM (inactive)	19.2 µM (inactive)	18.7 µM (inactive)	15.6 µM (inactive)	17.9 µM (inactive)	10.9 µM (inactive)	32.5 µM (inactive)	19 µM (inactive)		
CCCCNC(=S)Nc1nc(C(=O)NNC(=S)NC2CCCCC2)cs1	> 100 µM (inactive)	> 100 µM (inactive)	> 100 µM (inactive)	32.7	62.7 µM (inactive)	> 100 µM (inactive)	74.3 µM (inactive)	> 100 µM (inactive)	67.6 µM (inactive)	> 100 µM (inactive)	> 100 µM (inactive)	> 100 µM (inactive)	> 100 µM (inactive)	> 100 µM (inactive)	> 100 µM (inactive)	> 100 µM (inactive)	75.5 µM (inactive)	91.4 µM (inactive)	> 100 µM (inactive)	
Cc1ccn2c(=O)cc(-c3ccccc3)nc2c1		> 100 µM (inactive)		> 100	71.1 µM (inactive)	> 100 µM (inactive)	72.3 µM (inactive)	93.8 µM (inactive)	> 100 µM (inactive)	> 100 µM (inactive)	> 100 µM (inactive)	74 µM (inactive)	44.7 µM (inactive)	> 100 µM (inactive)	> 100 µM (inactive)	18.7 µM (inactive)	> 100 µM (inactive)	> 100 µM (inactive)		> 100 µM (inactive)
O=S(O)CCCCCSSSCCCCCS(=O)O	> 100 µM (inactive)	84.3 µM (inactive)			> 100 µM (inactive)	> 100 µM (inactive)		53.5 µM (inactive)	6.59 µM (inactive)				> 100 µM (inactive)		52 µM (inactive)	22.8 µM (inactive)	14.6 µM (inactive)	54.5 µM (inactive)	27.1 µM (inactive)	24.7 µM (inactive)
O=S(=O)(N=S(c1ccccc1)c1ccccc1)c1ccccc1	78.9 µM (inactive)	> 100 µM (inactive)		> 100	> 100 µM (inactive)	> 100 µM (inactive)	> 100 µM (inactive)	> 100 µM (inactive)	> 100 µM (inactive)	> 100 µM (inactive)	> 100 µM (inactive)	> 100 µM (inactive)	> 100 µM (inactive)	> 100 µM (inactive)			> 100 µM (inactive)	> 100 µM (inactive)		> 100 µM (inactive)
Oc1c(C(Nc2cccc3cccnc23)c2ccccc2)ccc2cccnc12 (stereo not drawn)	22.6 µM (inactive)	3.65 µM (inactive)	5.6 µM (inactive)		3.91 µM (inactive)	9.64 µM (inactive)		9.48 µM (inactive)	1.57 µM (inactive)	4.07 µM (inactive)	3.87 µM (inactive)		4.84 µM (inactive)		17.5 µM (inactive)	21.6 µM (inactive)	3.32 µM (inactive)		3.94 µM (inactive)	2.2 µM (inactive)
NC(CCCCO)C(=O)O (stereo not drawn)	> 100 µM (inactive)		> 100 µM (inactive)	> 100	> 100 µM (inactive)	> 100 µM (inactive)	> 100 µM (inactive)		> 100 µM (inactive)		> 100 µM (inactive)	> 100 µM (inactive)	> 100 µM (inactive)	> 100 µM (inactive)	> 100 µM (inactive)	> 100 µM (inactive)	> 100 µM (inactive)	> 100 µM (inactive)	> 100 µM (inactive)	> 100 µM (inactive)
N#Cc1c(N)nc(Nc2cccc3ccccc23)c(C#N)c1C#N	3.5 µM (inactive)	2.78 µM (inactive)	6.25 µM (inactive)	4.17	4.78 µM (inactive)	4.89 µM (inactive)	2.71 µM (inactive)	3.42 µM (inactive)	2.32 µM (inactive)		3.4 µM (inactive)		> 10 µM (inactive)	4.27 µM (inactive)	> 10 µM (inactive)	4.18 µM (inactive)	2.58 µM (inactive)	4.71 µM (inactive)	2.53 µM (inactive)	1.88 µM (inactive)
